Assay: gradient 5% acetonitrile 3 min, to 50% in 2 min, to 85% in 15 min, held 3 min, 100 µL/min
Conditions: column: Zorbax Extend-C18 2.1 x 50 mm; eluents: water / acetonitrile, 0.1% formic acid
In short: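 Standards, all pure, were combined into mixtures of ~100 molecules and run at 100 μL/min on a Zorbax Extend-C18 column (2.1 × 50 mm, 1.8 μm) with water and acetonitrile, each containing 0.1% formic acid. A coupled quadrupole time-of-flight mass spectrometer operated in positive and negative ionization mode. Retention time values come from computationally picked adduct peaks, each inspected manually.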

| Structure (SMILES) | RP-LC retention time |
| --- | --- |
| COCc1cc2nn(CC(=O)NC3CCCCC3)c(=O)n2c(-c2ccccc2)n1 | 785 s |
| COc1ccc(NS(=O)(=O)c2cc(-c3nc(C(C)(C)C)cs3)cs2)cc1F | 1180 s |
| Cc1nccn1-c1ccc(=O)n(CCNC(=O)c2cccc(C(F)(F)F)c2)n1 | 551 s |
| COc1ccc(Cl)cc1NC(=O)N1CCC2(CC1)N=C(c1cccc(F)c1)C(=O)N2 | 882 s |
| O=C(c1ccco1)N1c2ccccc2CC1c1nnc(C2CCOCC2)o1 (stereo not drawn) | 729 s |
| CC(C)NC(=O)N1CCc2c(c(-c3nc(-c4ccccc4)no3)nn2C)C1 | 820 s |
| C=C(C)COc1ccc2oc(C)c(C(=O)O)c2c1 | 879 s |
| O=C(NCc1nc(-c2ccc(-c3csc(C4CC4)n3)cc2)no1)c1ccco1 | 830 s |
| Cc1n[nH]c(C)c1S(=O)(=O)Nc1ccc(CC(=O)NCc2cccs2)cc1 | 640 s |
| COc1ccc(-c2noc(C3CCCN3C(=O)Nc3ccc4c(c3)OCCO4)n2)cc1 (stereo not drawn) | 752 s |
| Cn1nc(-c2nc(Cc3ccccc3)no2)c2c1CCN(C(=O)NC(C)(C)C)C2 | 889 s |
| CN(C)C(=O)CN1CCN(c2ccc(NC(=O)C(C)(C)C)c(C(=O)O)c2)CC1 | 595 s |
| CCn1cc(C2=CCN(C(=O)NCc3cccc(F)c3)CC2)c2cccnc21 | 850 s |
| COc1ccc(CNC(=O)N(Cc2ccsc2)CC(F)(F)F)cc1OC | 812 s |
| Cc1ccc(-c2nnc(-c3nn(C)c4c3CN(S(=O)(=O)c3cccc(F)c3)CC4)o2)cc1 | 999 s |
| COc1ccccc1-c1nc2cnccn2c1NCCC(=O)NC1CCCCCC1 | 715 s |
| OC1(c2ccccc2)CN(c2ccccc2)C2=[N+]1CCS2 (stereo not drawn) | 551 s |
| CCNC(=O)C1CCCN(C(=O)Nc2ccc(NC(=O)Nc3ccc(CC)cc3)cc2)C1 (stereo not drawn) | 773 s |
| Cn1ccc2cc(S(=O)(=O)N3CCCC(C(=O)NCCC4=CCCCC4)C3)ccc21 (stereo not drawn) | 1040 s |
| CCCn1c(=O)c2cc(C(=O)NCc3ccc(F)cc3Cl)nn2c2ccccc21 | 834 s |
| Fc1ccccc1N1CCN(Cc2nc(-c3ccc(N4CCSCC4)nc3)no2)CC1 | 1030 s |
| CC(C)N1CCN(C(=O)c2csc(N3CCN(c4ccccc4)CC3)n2)CC1 | 578 s |

| Structure (SMILES) | RP-LC retention time |
| --- | --- |
| CC(=O)Nc1ccc(S(=O)(=O)N2CCCCC2c2cccnc2)cc1 (stereo not drawn) | 593 s |
| COc1cc(-c2nc3ncccn3c2Nc2ccccc2)ccc1O | 633 s |
| O=C(NCc1ccccc1)c1ccc(-c2cccs2)nc1 | 884 s |
| O=S(=O)(c1cccc(-c2nnc(-c3ccc(F)cc3)o2)c1)N1CCOCC1 | 892 s |
| CCc1cccc(C)c1NC(=O)CCC(=O)N1CCOc2ccccc21 | 854 s |
| O=C(Cc1ccc(F)cc1)NCCNc1cc(-n2cccn2)ncn1 | 652 s |
| Cc1cc(S(=O)(=O)Nc2ccc(Cn3cncn3)cc2)ccc1F | 743 s |
| Cc1ccc(-c2nnc(Cc3nc(-c4ccc(OCC(C)C)cc4)no3)o2)cc1F | 919 s |
| Cc1cc(C(=O)Nc2nnc(-c3csc(C)n3)o2)c(C)o1 | 599 s |
| Cc1cccc(N2C(=O)N(Cc3cccc(F)c3)S(=O)(=O)c3cccnc32)c1 | 1090 s |
| CN1CCCCCC(O)c2cc(C(=O)NCCC3=CCCCC3)ccc21 (stereo not drawn) | 703 s |
| Cc1ccc(NC(=O)Nc2cnn(-c3ncncc3N3CCOCC3)c2)cc1C | 674 s |
| COc1ccc(CNC(=O)Nc2ccc(-c3nc(-c4ccccc4)co3)cc2)cc1 | 1050 s |
| Cc1ccc(N2CC(c3nc(-c4ccc5c(c4)nc(C)c(=O)n5C4CCCC4)no3)CC2=O)cc1 (stereo not drawn) | 1100 s |
| O=C(c1ccccc1OCC1CCCN(C2CCCCC2)C1)N1CCCCC1 (stereo not drawn) | 594 s |
| CCc1noc(NC(C)=O)c1-c1ccc(C)c(S(=O)(=O)N2CCCc3ccccc32)c1 | 953 s |
| Cc1oc2ccn(Cc3ccc(F)cc3)c(=O)c2c1C(=O)N1CCCCC1 | 834 s |
| Cc1cccc(N(C)C(=O)c2cccc(NC(=O)[C@H]3[C@@H]4C[C@@H]5[C@H]3C(=O)O[C@@H]5C4)c2)c1 | 782 s |
| O=C(NC1CCCC1)N1CCC(c2noc(-c3cccnc3)n2)C1 (stereo not drawn) | 701 s |
| Cc1nc2nc(-c3ccc(C(C)(C)C)cc3)nn2c(C)c1CC(=O)N1CCCCC1C (stereo not drawn) | 1080 s |
| O=C(c1cnc2n(c1=O)CCS2)N1CCN(c2ccc([N+](=O)[O-])cc2)CC1 | 635 s |
| COc1ccc(-n2c(=O)n(C)c(=O)c3cc(C(=O)NC(C)c4ccc(F)cc4)cnc32)cc1 (stereo not drawn) | 888 s |

| Structure (SMILES) | RP-LC retention time |
| --- | --- |
| Cc1cc(OCC(O)Cn2c(C3CC(=O)N(C(C)(C)C)C3)nc3ccccc32)cc(C)c1Cl (stereo not drawn) | 878 s |
| CCOc1ccccc1NC(=O)N1CCC2(CC1)N=C(c1cccc(F)c1)C(=O)N2 | 902 s |
| Cc1ccc(-c2csc(Cc3nc(-c4ccc(F)cc4)no3)n2)c(C)c1 | 1070 s |
| O=S(=O)(Nc1cccnc1)c1cc(-c2nnc(-c3ccccc3)o2)ccc1F | 744 s |
| CN(C)C(=O)c1cn(C2CN(S(=O)(=O)c3cccc4nsnc34)C2)nn1 | 657 s |
| COCCn1cc(CCNC(=O)Nc2cccc(C)c2C)c2cccnc21 | 721 s |
| O=C(Cc1csc2ccccc12)N1CCN(C(=O)Nc2ccccc2Cl)CC1 | 889 s |
| Cc1cc(C)n(-c2ccnc(N3CCC(C(N)=O)CC3)n2)n1 | 586 s |
| COc1ccc(Cl)cc1NC(=O)CN1C(=O)C2CCCCN2c2ccc(C(=O)N3CCCC3)cc21 (stereo not drawn) | 934 s |
| O=c1n(CC2CO2)c(=O)n(CC2CO2)c(=O)n1CC1CO1 (stereo not drawn) | 675 s |
| Oc1ccc2c3c1O[C@H]1c4[nH]c5ccccc5c4C[C@@]4(O)C(C2)N(CC2CC2)CC[C@]314 | 717 s |
| O=C(CNC(=O)c1ccc(F)c(Cl)c1)Nc1nc2ccccc2[nH]1 | 660 s |
| Cc1ccc(NC(=O)N2CCc3nc[nH]c3C2)cc1F | 606 s |
| CCOC(=O)c1nc(NCCCOC)c2c(-c3ccc(F)cc3)noc2n1 | 944 s |
| CCc1nccn1Cc1noc(-c2cccc(C)c2)n1 | 658 s |
| Cc1ccnc(N2CCCC(C(=O)NCCSCc3ccco3)C2)n1 (stereo not drawn) | 709 s |
| O=C(Cn1c2c(c(=O)n(C3CCCCC3)c1=O)CCC2)NCc1ccco1 | 764 s |
| COc1cccc(-n2c(=O)c3sccc3n(Cc3nc(-c4ccccc4C)no3)c2=O)c1 | 1000 s |
| O=C(Cc1nnc(-c2ccc3ncccc3c2)o1)NCCC1=CCCCC1 | 759 s |
| CN(C)c1ccc(-c2nc3cnccn3c2Nc2ccccc2)cc1 | 745 s |
| O=C(Nc1ccc2c(c1)OCCO2)c1noc2c1CCCC2 | 870 s |
| COc1cc(NC(=O)Cn2c(=O)nc(N3CCC(C)CC3)c3ccccc32)cc(OC)c1 | 798 s |

| Structure (SMILES) | RP-LC retention time |
| --- | --- |
| CN(C1CCCCC1)S(=O)(=O)c1ccc(NC(=O)c2ccco2)cc1 | 883 s |
| COCCCNC(=O)c1ccc(-c2ccc(Oc3ccccc3)nn2)cc1 | 757 s |
| Cc1nc(-c2ccc(-c3noc(-c4ccncc4)n3)cc2)cs1 | 1050 s |
| COc1nccnc1N1CCC(N(C)C(=O)NCc2cccc(F)c2)C1 (stereo not drawn) | 697 s |
| Cc1cc(N2CCCCC2C)n2nc(-c3ccccc3C)nc2n1 (stereo not drawn) | 991 s |
| Cc1ccccc1-c1csc2c(=O)n(CC(=O)OC(C)(C)C)cnc12 | 1060 s |
| COc1cccc(NC(=O)c2sc(C)nc2-c2ccc([N+](=O)[O-])cc2)c1 | 849 s |
| CC(C)CCN(CC(=O)N1CCNCC1)C(=O)c1ccc(Br)cc1 | 657 s |
| O=C(CSc1ccc(N2CCCC(C(=O)NC3CC3)C2)nn1)Nc1ccc2c(c1)OCCO2 (stereo not drawn) | 619 s |
| COc1ccc(-c2nnc(-c3cc(S(=O)(=O)NCc4cccnc4)ccc3Cl)o2)cc1 | 696 s |
| CC1CCN(C(=O)c2cc(S(=O)(=O)N(C)CC(=O)N3CCN(c4ccccc4)CC3)c[nH]2)CC1 | 862 s |
| Cc1c2cnn(-c3ccccc3)c(=O)c2c(C)n1CCCC(=O)N1CCN(c2ccccn2)CC1 | 611 s |
| O=C(c1ccc2cc[nH]c2c1)N1CCC(c2nc(C3CC3)n[nH]2)CC1 | 546 s |
| Cn1c(=O)n([C@H]2CCCN(S(=O)(=O)c3cccc4nsnc34)C2)c2ncccc21 | 822 s |
| CCc1cccc(C)c1NC(=O)Cn1nc2n(c1=O)CCCCC2 | 700 s |
| CC1(C(=O)NCc2ccc3c(c2)OCO3)CCCCC(=O)N1 (stereo not drawn) | 642 s |
| O=C(NCc1cccs1)C1CCCN(Cc2nc(-c3cccnc3)no2)C1 (stereo not drawn) | 571 s |
| COC(=O)c1ccccc1Nc1c(-c2ccc(N(C)C)cc2)nc2cnccn12 | 921 s |
| O=C(CSc1nc2ccccc2o1)Nc1cc(C(F)(F)F)ccc1Cl | 891 s |
| Cc1cccc(-c2noc(-c3ccc(N4CCN(C)CC4)nc3)n2)c1 | 708 s |
| CCSCCOC(=O)C1=C(C)NC2=C(C(=O)CCC2)C1c1cccc(OC)c1OC (stereo not drawn) | 861 s |
| CC(C)NC(=O)N1CCCC(c2cccc(C(=O)NCCC3=CCCCC3)c2)C1 (stereo not drawn) | 977 s |

Reference: the METLIN SMRT retention time set (Domingo-Almenara et al. 2019)
